From publication PMC7662656, “Pyrazole Incorporated New Thiosemicarbazones: Design, Synthesis and Investigation of DPP-4 Inhibitory Effects” (Molecules, 2020) come the findings set out here.

For orientation: inhibition means the relative decrease from the control value, in per cent.

One data set concerns the target T1, DPP-4 (Homo sapiens, UniProt P27487).
T1 construct: purchased Cayman Chemicals, Ann Arbor, MI, USA
In words: DPP-4 Inhibitor Screening Assay (fluorescence-based, Gly-Pro-AMC substrate). The data set is classed as biochemical. The conditions noted are these: mean ± SD; for inhibition at 100 µM: compound at 100 µM, triplicate; for IC50: five concentrations 10^−1 to 10^−5 µM, read-out: IC50 for DPP-4 inhibition. As for the experimental part:
This assay kit allows DPP-4 measurement using Gly-Pro-Aminomethylcoumarin (AMC) as a fluorogenic substrate. The free AMC group is released through the cleavage of the peptide bond by DPP leading to fluorescence that can be examined using appropriate excitation and emission wavelengths. Briefly, the experiment was performed triplicate in a white flat bottom 96 well plate. Thirty microlitres of assay buffer, 10 µL of DPP-4 enzyme, 10 µL of dimethyl sulfoxide (DMSO), and 50 µL of DPP substrate were added to 100% initial activity wells. Forty microlitres of assay buffer, 10 µL of DMSO, and 50 µL of DPP substrate were added to background wells. Thirty microlitres of assay buffer, 10 µL of DPP-4 enzyme, 10 µL of sample, and 50 µL of DPP substrate were added to inhibitor wells. […] The plate was incubated for 30 min at 37 °C, and fluorescence measurements were analyzed using an excitation wavelength of 360/40 nm and an emission wavelength of 460/40 nm in a multi-mode plate reader (Synergy HTX S1LFA, BioTek Instruments, Winooski, VT, USA). All assays were performed in triplicate. The fluorescence of the background wells was subtracted from all other wells before the calculations. The per cent inhibition was determined by the following formula in equation 1:Inhibition% = [(Initial activity − Inhibitor)/Initial Activity] × 100(1)

A short description of data set [1]: MTT cytotoxicity assay on NIH/3T3 cells. Format: cell-based. To be noted: mouse, NIH/3T3 mouse embryonic fibroblast cells, 24 h incubation, 31.25-500 µM, read-out: IC50 cytotoxicity towards NIH/3T3 cell line. The procedure: NIH/3T3 mouse embryonic fibroblast (normal) cells (ATCC® CRL-1658™) were grown in RPMI 1640 medium (Sigma-Aldrich, St. Louis, MO, USA) supplemented with 2 mM L-glutamine (Gibco, Paisley, UK), 10% fetal bovine serum (Gibco, Paisley, UK) and 1% penicillin/streptomycin (Gibco, Paisley, UK) at 37 °C in a humidified incubator with a 5% CO2 atmosphere. Compounds 2a–o were dissolved in DMSO (Sigma-Aldrich, St. Louis, MO, USA) and diluted to required concentrations with a fresh medium. The control group (solvent control) was prepared with a medium containing 0.1% DMSO. […]
In order to determine IC50 concentrations of compounds 2a–o, cell viability was determined by MTT assay. […] The absorbance values were measured at 540 nm using a Cytation 3 Cell Imaging Multi-Mode Reader (BioTek, Winooski, VT, USA). Cell survival rates were expressed as the percentage of the DMSO (0.1%) solvent control and IC50 concentrations were calculated according to the analysis result.
On the technique in general: Tetrazolium dyes change colour on reduction, which living cells bring about.

T1 sequence (P27487 whole entry): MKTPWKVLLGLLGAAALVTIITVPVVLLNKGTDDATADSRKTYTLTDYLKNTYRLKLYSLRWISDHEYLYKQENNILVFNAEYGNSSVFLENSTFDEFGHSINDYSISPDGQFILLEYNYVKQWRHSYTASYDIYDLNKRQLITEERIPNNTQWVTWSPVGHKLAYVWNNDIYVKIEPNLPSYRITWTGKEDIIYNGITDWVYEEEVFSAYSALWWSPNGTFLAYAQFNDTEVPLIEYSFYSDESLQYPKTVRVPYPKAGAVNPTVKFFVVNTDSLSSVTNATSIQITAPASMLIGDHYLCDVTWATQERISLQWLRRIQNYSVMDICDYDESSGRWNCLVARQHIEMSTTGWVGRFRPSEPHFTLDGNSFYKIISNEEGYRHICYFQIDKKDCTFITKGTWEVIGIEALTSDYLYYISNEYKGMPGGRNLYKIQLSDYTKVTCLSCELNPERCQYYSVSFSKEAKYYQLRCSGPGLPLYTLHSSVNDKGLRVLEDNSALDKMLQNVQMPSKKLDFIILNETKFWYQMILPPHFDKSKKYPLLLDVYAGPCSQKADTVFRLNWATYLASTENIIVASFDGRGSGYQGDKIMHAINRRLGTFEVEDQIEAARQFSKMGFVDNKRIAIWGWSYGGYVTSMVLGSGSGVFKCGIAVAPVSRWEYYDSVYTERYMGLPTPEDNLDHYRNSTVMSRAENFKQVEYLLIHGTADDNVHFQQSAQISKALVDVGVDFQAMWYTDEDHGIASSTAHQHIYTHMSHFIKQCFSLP

In the case of `S=C(N/N=C/c1ccccc1)Nc1ccc(-n2cccn2)cc1` [Compound 2a, [4-(1H-Pyrazol-1-yl)phenyl]-1-(benzylidene)thiosemicarbazide], the inhibition at 100 µM on DPP-4 was determined as 20.7 ± 1.82%.
Same read-out and setting: then `O=[N+]([O-])c1ccc(/C=N/NC(=S)Nc2ccc(-n3cccn3)cc2)cc1` [Compound 2b, [4-(1H-Pyrazol-1-yl)phenyl]-1-(4-nitrobenzylidene)thiosemicarbazide], with 35.5 ± 1.75%; and `N#Cc1ccc(/C=N/NC(=S)Nc2ccc(-n3cccn3)cc2)cc1` [Compound 2c, [4-(1H-Pyrazol-1-yl)phenyl]-1-(4-cyanobenzylidene)thiosemicarbazide], with 28 ± 1.63%.
Still for that read-out and setting: the same measure for `Fc1ccc(/C=N/NC(=S)Nc2ccc(-n3cccn3)cc2)cc1` [Compound 2d, [4-(1H-Pyrazol-1-yl)phenyl]-1-(4-fluorobenzylidene)thiosemicarbazide]: 27.3 ± 2.03%; for `S=C(N/N=C/c1ccc(Cl)cc1)Nc1ccc(-n2cccn2)cc1` [Compound 2e, [4-(1H-Pyrazol-1-yl)phenyl]-1-(4-chlorobenzylidene)thiosemicarbazide]: 38.4 ± 2.14%.
Consider `S=C(NN=Cc1ccc(Br)cc1)Nc1ccc(-n2cccn2)cc1` [Compound 2f, 4-[4-(1H-pyrazol-1-yl)phenyl]-1-(4-bromobenzylidene)thiosemicarbazide], for which the IC50 at 24 h in data set [1] was > 500000 nM. Moreover, at DPP-4, the IC50 stood at 1.27 ± 0.264 nM.
`FC(F)(F)c1ccc(/C=N/NC(=S)Nc2ccc(-n3cccn3)cc2)cc1` [Compound 2g, [4-(1H-Pyrazol-1-yl)phenyl]-1-(4-trifluoromethylbenzylidene)thiosemicarbazide]: on DPP-4, the inhibition at 100 µM is > 60% and the IC50 was 4.78 ± 0.296 nM.
With `Cc1ccc(/C=N/NC(=S)Nc2ccc(-n3cccn3)cc2)cc1` [Compound 2h, [4-(1H-Pyrazol-1-yl)phenyl]-1-(4-methylbenzylidene)thiosemicarbazide], the inhibition at 100 µM at DPP-4 stood at 53.2 ± 3.1%.
For the molecule `COc1ccc(/C=N/NC(=S)Nc2ccc(-n3cccn3)cc2)cc1` [Compound 2i, [4-(1H-Pyrazol-1-yl)phenyl]-1-(4-methoxybenzylidene)thiosemicarbazide], on DPP-4, the inhibition at 100 µM is > 60% and the IC50 was 43.31 ± 0.372 nM.
For the molecule `CS(=O)(=O)c1ccc(/C=N/NC(=S)Nc2ccc(-n3cccn3)cc2)cc1` [Compound 2j, [4-(1H-Pyrazol-1-yl)phenyl]-1-(4-methylsulfonylbenzylidene)thiosemicarbazide], the inhibition at 100 µM on DPP-4 amounted to 59.8 ± 1.13%.
As for `CSc1ccc(/C=N/NC(=S)Nc2ccc(-n3cccn3)cc2)cc1` [Compound 2k, [4-(1H-Pyrazol-1-yl)phenyl]-1-(4-methylthiobenzylidene)thiosemicarbazide], at DPP-4, the inhibition at 100 µM is > 60% and the IC50 was 22.7 ± 0.301 nM.
Take `CN(C)c1ccc(/C=N/NC(=S)Nc2ccc(-n3cccn3)cc2)cc1` [Compound 2l, [4-(1H-Pyrazol-1-yl)phenyl]-1-(4-dimethylaminobenzylidene)thiosemicarbazide]: the inhibition at 100 µM on DPP-4 turned out to be 57.3 ± 1.04%.
Same read-out and setting: then `CC(C)c1ccc(/C=N/NC(=S)Nc2ccc(-n3cccn3)cc2)cc1` [Compound 2m, [4-(1H-Pyrazol-1-yl)phenyl]-1-(4-isopropylbenzylidene)thiosemicarbazide], with 47.4 ± 1.29%; and `CC(C)(C)c1ccc(/C=N/NC(=S)Nc2ccc(-n3cccn3)cc2)cc1` [Compound 2n, [4-(1H-Pyrazol-1-yl)phenyl]-1-(4-tert-butylbenzylidene)thiosemicarbazide], with 28.6 ± 1.76%.
As for `S=C(N/N=C/c1ccc(-c2ccccc2)cc1)Nc1ccc(-n2cccn2)cc1` [Compound 2o, [4-(1H-Pyrazol-1-yl)phenyl]-1-(4-phenylbenzylidene)thiosemicarbazide], on DPP-4, the inhibition at 100 µM is > 60% and the IC50 amounted to 18.1 ± 0.311 nM.
